Test results as given in PubChem BioAssay AID248 (DTP/NCI, 2004).
Where “and” joins values, the source holds several entries; their conditions need not be identical. Equal entries are not always repeated. Inconclusive results and toxic doses are left out. Rule as the data show it: active = T/C of 150% or more; inactive = T/C below 125%.

Test system: L1210 leukemia ip in BDF1 mice, survival T/C
Experiment: NCI In Vivo Anticancer Drug Screen. Data for tumor model L1210 Leukemia (intraperitoneal) in B6D2F1 (BDF1) mice
Conditions: endpoint: mean survival time, higher = longer survival
In short: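 Transplanted-tumor mice were given test agent; controls received vehicle only. Survival readings from the two groups were divided (treated over control).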

[1] = dose: 100.0 mg/kg/injection, schedule: Q04DX002 (ip), vehicle: saline with Tween-80
[2] = dose: 100.0 mg/kg/injection, schedule: Q01DX009 (ip), vehicle: Klucel (hydroxypropylcellulose) (HPC)
[3] = dose: 100.0 mg/kg/injection, schedule: Q01DX009 (ip), vehicle: saline with Tween-80
[4] = dose: 100.0 mg/kg/injection, schedule: Q04DX003 (ip), vehicle: saline with Tween-80
[5] = dose: 200.0 mg/kg/injection, schedule: Q01DX009 (ip), vehicle: Klucel (hydroxypropylcellulose) (HPC)
[6] = dose: 200.0 mg/kg/injection, schedule: Q01DX009 (ip), vehicle: saline with Tween-80
[7] = dose: 200.0 mg/kg/injection, schedule: Q04DX003 (ip), vehicle: saline with Tween-80
[8] = dose: 400.0 mg/kg/injection, schedule: Q01DX009 (ip), vehicle: Klucel (hydroxypropylcellulose) (HPC)
[9] = dose: 400.0 mg/kg/injection, schedule: Q01DX009 (ip), vehicle: saline with Tween-80
[10] = dose: 400.0 mg/kg/injection, schedule: Q04DX003 (ip), vehicle: saline with Tween-80
[11] = dose: 100.0 mg/kg/injection, schedule: Q01DX001 (ip), vehicle: saline
[12] = dose: 200.0 mg/kg/injection, schedule: Q01DX001 (ip), vehicle: saline
[13] = dose: 400.0 mg/kg/injection, schedule: Q01DX001 (ip), vehicle: saline
[14] = dose: 50.0 mg/kg/injection, schedule: Q04DX003 (ip), vehicle: saline with Tween-80
[15] = dose: 100.0 mg/kg/injection, schedule: Q04DX002 (ip), vehicle: saline
[16] = dose: 200.0 mg/kg/injection, schedule: Q04DX002 (ip), vehicle: saline
[17] = dose: 400.0 mg/kg/injection, schedule: Q04DX002 (ip), vehicle: saline

Measured: T/C

CNc1c(C)cc(C)c(NC)c1C
inactive: [1] 107 % of control

CCCCCCSC(=N)N
inactive: dose: 12.5 mg/kg/injection, schedule: Q01DX001 (ip), vehicle: saline 95 % of control | dose: 12.5 mg/kg/injection, schedule: Q04DX002 (ip), vehicle: saline 94 % of control and 97 % of control | dose: 12.5 mg/kg/injection, schedule: Q04DX003 (ip), vehicle: saline 119 % of control | dose: 25.0 mg/kg/injection, schedule: Q01DX001 (ip), vehicle: saline 100 % of control | dose: 25.0 mg/kg/injection, schedule: Q04DX002 (ip), vehicle: saline 94 % of control and 100 % of control | dose: 25.0 mg/kg/injection, schedule: Q04DX003 (ip), vehicle: saline 104 % of control | dose: 50.0 mg/kg/injection, schedule: Q01DX001 (ip), vehicle: saline 89 % of control | dose: 50.0 mg/kg/injection, schedule: Q04DX002 (ip), vehicle: saline 103 % of control and 106 % of control | dose: 50.0 mg/kg/injection, schedule: Q04DX003 (ip), vehicle: saline 102 % of control

CC(c1ccccc1)C(C(=O)O)C(=O)O (stereo not given)
inactive: dose: 50.0 mg/kg/injection, schedule: Q01DX001 (ip), vehicle: carboxymethylcellulose (CMC) 100 % of control | dose: 100.0 mg/kg/injection, schedule: Q01DX001 (ip), vehicle: carboxymethylcellulose (CMC) 96 % of control | dose: 200.0 mg/kg/injection, schedule: Q01DX001 (ip), vehicle: carboxymethylcellulose (CMC) 96 % of control | dose: 400.0 mg/kg/injection, schedule: Q01DX001 (ip), vehicle: carboxymethylcellulose (CMC) 97 % of control

CC1(c2ccco2)NC(=O)NC1=O (stereo not given)
inactive: [2] 94 % of control | [3] 91 % of control | [4] 111 % of control and 101 % of control | [5] 100 % of control | [6] 95 % of control | [7] 104 % of control and 114 % of control | [8] 105 % of control | [9] 98 % of control | [10] 111 % of control and 101 % of control

CCOC(=O)CN1C(=O)NC2(CCc3ccccc3C2)C1=O (stereo not given)
inactive: [10] 98 % of control

Cc1ccc(/C([O-])=C(\C(=S)Nc2cccc(C)c2)[n+]2ccccc2)cc1
inactive: [3] 103 % of control and 112 % of control | [1] 93 % of control and 95 % of control | [6] 93 % of control and 100 % of control | dose: 200.0 mg/kg/injection, schedule: Q04DX002 (ip), vehicle: saline with Tween-80 93 % of control and 115 % of control | [9] 95 % of control and 101 % of control | dose: 400.0 mg/kg/injection, schedule: Q04DX002 (ip), vehicle: saline with Tween-80 98 % of control and 107 % of control

CN(C)c1n[nH]c(=O)[nH]c1=O
inactive: [11] 91 % of control | [12] 114 % of control | [13] 93 % of control

Cc1ccc(S(=O)(=O)NC(=O)c2c3ccccc3cc3ccccc23)cc1
inactive: dose: 100.0 mg/kg/injection, schedule: Q01DX001 (ip), vehicle: acetone 104 % of control | dose: 200.0 mg/kg/injection, schedule: Q01DX001 (ip), vehicle: acetone 104 % of control | dose: 400.0 mg/kg/injection, schedule: Q01DX001 (ip), vehicle: acetone 96 % of control

O=C(/C=C\c1ccccc1)Nc1c(Cl)cc(Cl)cc1Cl
inactive: dose: 100.0 mg/kg/injection, schedule: Q04DX002 (ip), vehicle: Klucel (hydroxypropylcellulose) (HPC) 91 % of control | dose: 200.0 mg/kg/injection, schedule: Q04DX002 (ip), vehicle: Klucel (hydroxypropylcellulose) (HPC) 107 % of control | dose: 400.0 mg/kg/injection, schedule: Q04DX002 (ip), vehicle: Klucel (hydroxypropylcellulose) (HPC) 95 % of control

COc1ccccc1-n1c(=O)c(N=Nc2ccccc2)c(O)n(-c2ccccc2Cl)c1=S
inactive: [14] 94 % of control | [4] 94 % of control

Cc1cc(C(=O)O)c(C)c2c1sc1ccccc12
inactive: [11] 87 % of control | [12] 107 % of control

CCCCCCCCCCCCCCCCC(/C=N/N=C(N)N)=N\N=C(N)N
inactive: dose: 15.0 mg/kg/injection, schedule: Q01DX Z (ip), vehicle: methylcellulose (MC) 95 % of control | dose: 30.0 mg/kg/injection, schedule: Q01DX Z (ip), vehicle: methylcellulose (MC) 98 % of control | dose: 60.0 mg/kg/injection, schedule: Q01DX Z (ip), vehicle: methylcellulose (MC) 110 % of control | dose: 120.0 mg/kg/injection, schedule: Q01DX Z (ip), vehicle: methylcellulose (MC) 103 % of control | dose: 240.0 mg/kg/injection, schedule: Q01DX Z (ip), vehicle: methylcellulose (MC) 101 % of control | dose: 360.0 mg/kg/injection, schedule: Q01DX Z (ip), vehicle: methylcellulose (MC) 97 % of control | dose: 480.0 mg/kg/injection, schedule: Q01DX Z (ip), vehicle: methylcellulose (MC) 98 % of control | dose: 720.0 mg/kg/injection, schedule: Q01DX Z (oral), vehicle: methylcellulose (MC) 97 % of control | dose: 960.0 mg/kg/injection, schedule: Q01DX Z (oral), vehicle: methylcellulose (MC) 93 % of control

CNc1ccccc1C(=O)N/N=C/c1c(O)ccc2ccccc12
inactive: [15] 99 % of control | [16] 96 % of control | [17] 96 % of control

CS(=O)CC(N)C(=O)O (stereo not given)
inactive: [11] 97 % of control | [12] 102 % of control | [13] 103 % of control

CCCCNC(C)(C)COC(=O)/C=C/c1ccc(OCCCC)cc1
inactive: [14] 92 % of control | [11] 104 % of control | dose: 100.0 mg/kg/injection, schedule: Q01DX015 (ip), vehicle: saline 86 % of control | [4] 94 % of control | [12] 102 % of control | dose: 200.0 mg/kg/injection, schedule: Q01DX015 (ip), vehicle: saline 89 % of control | [7] 105 % of control

c1ccc(-c2ccc([Si](c3ccccc3)(c3ccccc3)c3ccccc3)cc2)cc1
inactive: [2] 102 % of control | dose: 100.0 mg/kg/injection, schedule: Q04DX003 (ip), vehicle: Klucel (hydroxypropylcellulose) (HPC) 105 % of control | [5] 96 % of control | dose: 200.0 mg/kg/injection, schedule: Q04DX003 (ip), vehicle: Klucel (hydroxypropylcellulose) (HPC) 94 % of control | [8] 93 % of control | dose: 400.0 mg/kg/injection, schedule: Q04DX003 (ip), vehicle: Klucel (hydroxypropylcellulose) (HPC) 96 % of control

CCCOCNC(=O)c1cccnc1
inactive: [11] 103 % of control | dose: 100.0 mg/kg/injection, schedule: Q01DX009 (ip), vehicle: saline 97 % of control | [12] 95 % of control | dose: 200.0 mg/kg/injection, schedule: Q01DX009 (ip), vehicle: saline 94 % of control | [13] 105 % of control | dose: 400.0 mg/kg/injection, schedule: Q01DX009 (ip), vehicle: saline 103 % of control

CC(C)(C)C(=O)CC(=O)C(C)(C)C
inactive: [11] 101 % of control | dose: 100.0 mg/kg/injection, schedule: Q01DX009 (ip), vehicle: other 92 % of control | [3] 91 % of control | dose: 100.0 mg/kg/injection, schedule: Q04DX002 (ip), vehicle: other 102 % of control | [15] 116 % of control | [4] 103 % of control | dose: 100.0 mg/kg/injection, schedule: Q04DX003 (ip), vehicle: saline 98 % of control | [12] 110 % of control | dose: 200.0 mg/kg/injection, schedule: Q01DX009 (ip), vehicle: other 97 % of control | [6] 97 % of control | dose: 200.0 mg/kg/injection, schedule: Q04DX002 (ip), vehicle: other 97 % of control | [16] 101 % of control | [7] 103 % of control | dose: 200.0 mg/kg/injection, schedule: Q04DX003 (ip), vehicle: saline 103 % of control | [13] 102 % of control | dose: 400.0 mg/kg/injection, schedule: Q01DX009 (ip), vehicle: other 97 % of control | [9] 91 % of control | dose: 400.0 mg/kg/injection, schedule: Q04DX002 (ip), vehicle: other 102 % of control | [17] 108 % of control | dose: 400.0 mg/kg/injection, schedule: Q04DX003 (ip), vehicle: saline 95 % of control

CCOC(=S)SCc1ccc([N+](=O)[O-])cc1
inactive: dose: 100.0 mg/kg/injection, schedule: Q04DX002 (ip), vehicle: gum acacia 97 % of control | dose: 200.0 mg/kg/injection, schedule: Q04DX002 (ip), vehicle: gum acacia 100 % of control | dose: 400.0 mg/kg/injection, schedule: Q04DX002 (ip), vehicle: gum acacia 97 % of control
